Source: the supplement of paper PMC5579334

What was measured:
HS-PSS [1] = assay: % inhibition of CellTiter-Glo viability at highest tested concentration (72 h), relative to DMSO and benzethonium chloride controls; higher = more inhibition
Method in brief: (§1)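 Viability of MPNST cell lines and primary human Schwann cells was read as CellTiter-Glo ATP luminescence after 72 h at 37 °C, 5% CO2, in 384-well plates seeded with 750–1000 cells per well. Each compound had been preprinted at five concentrations in 10-fold steps. Signals were scaled between vehicle and positive-control wells, duplicates averaged where present, and fitted with four-parameter logistic curves. Drug sensitivity score and relative IC50 (censored at the top concentration) come from those fits, and percent inhibition is taken at the top concentration.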

HS-Sch-2 [2] = assay: as above
Method in brief: as §1

YST-1 [3] = assay: as above
Method in brief: as §1

HS-PSS [4] = assay: drug sensitivity score (DSS, CellTiter-Glo viability, 72 h) (DSS (dimensionless)); higher = more sensitive; extreme values may be limits of the assay
Method in brief: as §1

HS-Sch-2 [5] = assay: as above
Method in brief: as §1

YST-1 [6] = assay: as above
Method in brief: as §1

HS-PSS [7] = assay: drug sensitivity score (DSS, CellTox-Green cytotoxicity, 72 h) (DSS (dimensionless)); higher = more cytotoxic; extreme values may be limits of the assay
Method in brief: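 MPNST cell lines and primary human Schwann cells were grown for 72 h at 37 °C in 384-well plates containing five 10-fold compound dilutions. CellTox-Green, added before seeding at a final 1:1000 dilution, gave fluorescence from DNA released by disrupted cells, and signals were scaled to vehicle and positive-control wells. Curves were fitted with a four-parameter logistic model. Drug sensitivity score and relative IC50 come from these fits, with IC50 censored at the top concentration.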

SMILES	% inhibition (HS-PSS [1])	% inhibition (HS-Sch-2 [2])	% inhibition (YST-1 [3])	drug sensitivity score (HS-PSS [4])	drug sensitivity score (HS-Sch-2 [5])	drug sensitivity score (YST-1 [6])	drug sensitivity score (HS-PSS [7])
CCn1c(=O)c(-c2ccc(Cl)cc2Cl)cc2cnc(Nc3ccc(N4CCNCC4)c(F)c3)nc21 [FRAX486] (max concentration tested 5000 nM)	11.5%	47.6%	-6.01%	3.36	9.15	0	0
CS(=O)(=O)c1ccc(-c2cnc(N)c(C(=O)Nc3ccccc3)n2)cc1 [VE-821] (max concentration tested 10000 nM)	10.4%	5.62%	7.49%	0.05	0	0	0
O=C(O)CSc1cc(NS(=O)(=O)c2ccc(Br)cc2)c2ccccc2c1O [UMI-77] (max concentration tested 100000 nM)	101%	101%	102%	6.44	14.4	18.2	4.6
OC(CC1c2ccccc2-c2cncn21)C1CCCCC1 (configuration not stated) [NLG919] (max concentration tested 10000 nM)	7.55%	0.68%	10.1%	0	0	0	0
O=C(c1cccc(Cl)c1F)N1CCN(Cc2cccc(Nc3nccs3)n2)CC1 [MK-8745] (max concentration tested 2500 nM)	17.5%	48.5%	36.5%	0.32	3.17	4.21	0.89
CON(C)C(=O)N1N=C(c2cc(F)ccc2F)S[C@@]1(CCCN)c1ccccc1 [Filanesib] (max concentration tested 1000 nM)	29%	88.7%	78.3%	7.81	29.1	25.7	0
c1cn2cc(-c3ccc4cn[nH]c4c3)nc(Nc3ccc(N4CCOCC4)cc3)c2n1 [Entospletinib] (max concentration tested 5000 nM)	-4.13%	-16%	12%	0	0.89	0.45	0.89
Cc1nc(N)sc1-c1ccnc(Nc2ccc(N3CCOCC3)cc2)n1 [CYC-116] (max concentration tested 10000 nM)	65.9%	54.2%	58.8%	6.5	4.97	8.36	0
Cc1cc(-c2ncc(-c3cccnc3)cc2/C=C/c2ccccc2)cnc1-c1cccnc1 [Pyridoclax] (max concentration tested 25000 nM)	9.44%	19.9%	62.7%	0.36	1.52	16.5	0
C[C@@H](Oc1ccc2[nH]nc(/C=C/c3cnn(CCO)c3)c2c1)c1c(Cl)cncc1Cl (max concentration tested 1000 nM)	91%	67.9%	55.4%	7.62	6.87	6.1	2.66
CN1CCN(c2cc(C(=O)Nc3ccc4c(c3)-c3c(c(C(N)=O)nn3-c3ccc(F)cc3)CC4)c(Cl)cn2)CC1 [PHA 408] (max concentration tested 10000 nM)	101%	99.8%	99.9%	7.02	5.4	5.73	4.95
Cc1cc(OCc2nnc(SC3CCCC3)n2-c2cccnc2)ccc1-c1ccc(S(C)(=O)=O)cc1 [NMS-873] (max concentration tested 10000 nM)	99.9%	101%	99.9%	22.9	19.2	9.52	5.58
Nc1nc(N)c2nc(-c3cccc(O)c3)c(-c3cccc(O)c3)nc2n1 [TG100-115] (max concentration tested 10000 nM)	9.07%	10.8%	20.9%	0	0	1.38	0
CCC(C)n1ncn(-c2ccc(N3CCN(c4ccc(OCC5COC(Cn6cncn6)(c6ccc(Cl)cc6Cl)O5)cc4)CC3)cc2)c1=O (configuration not stated) [Itraconazole] (max concentration tested 5000 nM)	50.9%	11.3%	33.2%	4.25	0.33	1.58	0
Cc1c(F)cc(C(=O)NC2CC2)cc1-c1ccc(C(=O)NCC(C)(C)C)cn1 [Losmapimod] (max concentration tested 10000 nM)	8.01%	1.17%	32.3%	0	0	10.1	0
CNc1nc(Nc2cn(C(C)(C)C#N)nc2C)ncc1C(F)(F)F [GNE-0877] (max concentration tested 1000 nM)	23.4%	5.3%	-4.9%	2.29	0	0	0

SMILES	% inhibition (HS-PSS [1])	% inhibition (HS-Sch-2 [2])	% inhibition (YST-1 [3])	drug sensitivity score (HS-PSS [4])	drug sensitivity score (HS-Sch-2 [5])	drug sensitivity score (YST-1 [6])	drug sensitivity score (HS-PSS [7])
O=C(Nc1cccc(NC(=O)c2cccc(O)c2O)c1)c1cccc(O)c1O [MST-312] (max concentration tested 10000 nM)	86.4%	90.7%	96.2%	4.53	10.8	5.45	0.02
NS(=O)(=O)NCCNc1nonc1/C(=N/O)Nc1ccc(F)c(Br)c1 [Epacadostat] (max concentration tested 10000 nM)	6.08%	13.3%	12.5%	0	0.29	0	0
C=CC(=O)N1CCC(Oc2cc3c(Nc4ccc(Cl)c(Cl)c4F)ncnc3cc2OC)CC1 [Poziotinib] (max concentration tested 1000 nM)	6.52%	3.19%	12.9%	0	0	0.25	0
CC(C)[C@H](C(=O)Nc1ccc(C(=O)NO)cc1)c1ccccc1 [AR-42] (max concentration tested 10000 nM)	88.1%	101%	100%	10	10.9	17.8	5
Oc1ncc(N(CCCl)CCCl)c(O)n1 [Uramustine] (max concentration tested 10000 nM)	-0.55%	3%	1.38%	0	0	0	0
O=C(Nc1ccc(-c2ccnc(Nc3ccc(N4CCOCC4)cc3)n2)cc1)[C@H]1CCCN1 [XL019] (max concentration tested 10000 nM)	32.7%	22.7%	24.9%	1.67	1.09	1.13	0
Cc1cccc(-c2[nH]c(CNc3ccccc3F)nc2-c2ccc3ncnn3c2)n1 [TEW-7197] (max concentration tested 2500 nM)	23.2%	13.1%	-10.6%	1.89	0.08	0	0
O=C(NOC[C@H](O)CO)c1ccc(F)c(F)c1Nc1ccc(I)cc1F (max concentration tested 1000 nM)	12.4%	15%	-8.18%	0.01	0.69	0	0
CC(C)Oc1cc(Nc2nc(N[C@@H](C)c3ccc(F)cn3)ncc2Cl)n[nH]1 [AZ-23] (max concentration tested 1000 nM)	12.4%	21.1%	26.5%	0.29	1.29	1.96	0
COc1cc2nccc(Oc3ccc(NC(=O)NC4CC4)c(Cl)c3)c2cc1C(N)=O [Lenvatinib] (max concentration tested 2500 nM)	5.51%	15%	18.1%	0	0.06	0.83	0
CNc1nc(-c2ccc3c(N)n[nH]c3c2)cc(N2C[C@@H](C(=O)NC3CCCCC3)CC[C@H]2C)n1 (max concentration tested 10000 nM)	27.7%	14.3%	54%	1.2	0.1	7.15	0
CCS(=O)(=O)N1CCN(c2ccc(Nc3ncc(C(N)=O)c(NC4CC4)n3)cc2)CC1 [Cerdulatinib] (max concentration tested 10000 nM)	40.3%	58.9%	-4.68%	3.47	4.87	0	0
CNC(=O)c1ccccc1Nc1nc(Nc2ccc3c(c2OC)CCC[C@H](N2CCN(CCO)CC2)C3)ncc1Cl (max concentration tested 5000 nM)	86.5%	98.5%	82.8%	15	7.99	8.71	2.99
O=C(Nc1ccc(OC(F)(F)F)cc1)c1sccc1NCc1ccnc2ccccc12 [OSI-930] (max concentration tested 2500 nM)	23.2%	17.9%	1.07%	2.5	0.3	0	0
CCCOc1ccn2c(C(C)=O)cc(-c3ccccc3S(C)(=O)=O)c2c1 [GSK2801] (max concentration tested 10000 nM)	0.71%	-6.2%	0.58%	0	0	0	0
